Results as given in ChEMBL document CHEMBL1132366, “Conceptually new sulfone analogues of the hormone 1alpha, 25-dihydroxyvitamin D(3): synthesis and preliminary biological evaluation” (J Med Chem, 1999).

What was measured:
[1] = target: T1, Vitamin D3 receptor (Rattus norvegicus) (UniProt P13053); assay: Binding affinity for vitamin D3 receptor compared to 1,25D3 (100%)
T1 sequence (whole entry): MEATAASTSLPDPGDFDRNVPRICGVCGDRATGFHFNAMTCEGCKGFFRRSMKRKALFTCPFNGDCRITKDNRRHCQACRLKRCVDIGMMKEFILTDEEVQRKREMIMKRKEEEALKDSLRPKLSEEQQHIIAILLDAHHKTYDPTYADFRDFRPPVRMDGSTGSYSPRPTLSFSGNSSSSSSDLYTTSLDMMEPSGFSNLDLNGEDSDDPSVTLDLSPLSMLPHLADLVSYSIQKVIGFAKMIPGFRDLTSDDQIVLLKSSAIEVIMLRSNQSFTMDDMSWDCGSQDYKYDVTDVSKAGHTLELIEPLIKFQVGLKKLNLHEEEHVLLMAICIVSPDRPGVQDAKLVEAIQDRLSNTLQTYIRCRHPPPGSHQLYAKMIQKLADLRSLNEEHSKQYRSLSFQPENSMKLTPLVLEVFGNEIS

[2] = target: T1, Vitamin D3 receptor (Rattus norvegicus); assay: Vitamin D3 receptor-mediated transcriptional potency in rat osteosarcoma ROS 17/2.8 cells

Affinity [1] [%] | ED50 [2] [pM] | Compound
7.9 | 650 | C=C1/C(=C/C=C2/CCC[C@]3(C)C([C@H](C)CCC(F)(F)S(=O)(=O)C(C)(C)C)=CC[C@@H]23)C[C@@H](O)C[C@@H]1O
– | 350 | C=C1C(=CC=C2CCC[C@]3(C)[C@@H]([C@H](C)CCCC(C)(C)O)CC[C@@H]23)C[C@@H](O)C[C@@H]1O
4 | 4000 | C=C1/C(=C/C=C2/CCC[C@]3(C)C([C@H](C)C/C=C(/F)S(=O)(=O)C(C)(C)C)=CC[C@@H]23)CC(O)CC1O (some centres not stated)
21 | 800 | C=C1/C(=C/C=C2/CCC[C@]3(C)C([C@H](C)CCS(=O)(=O)C(C)(C)C)=CC[C@@H]23)C[C@@H](O)C[C@@H]1O
